From patent publication US20070142450A1, “Novel urea derivatives and their medical use” (priority 2004, published 2007) come the findings set out here.

For one data set, the system named is male Wistar rats. The data set is described as follows: Morris Water Maze (MWM), scopolamine-induced impairment of spatial learning and memory. The format is in vivo, rat. The text has this:
The Morris Water Maze (MWM) is the favored test in behavioral neuroscience for the study of hippocampal-dependent learning and memory (see Morris R G: Developments of a Water Maze procedure for studying spatial learning in the rat; J. Neurosci. Meth. 1984 11 47-60). It is a standardized behavioral task to test spatial navigation in rodents, and is a highly sensitive test to assess cognition in animals.
In the MWM performance animals have to remember the position of a submerged platform (10×10 cm) within a circular (Ø 150 cm) water tank using visual spatial cues. A number of eight (n=8) male Wistar rats were used for each group in each experiment. In four trials per day, for four consecutive acquisition days, they are released from different starting points close to the wall of the tank to find their way to the submerged platform. Spatial learning abilty is evaluated by latency to locate the platform.
This learning impairment was reversed by 30 mg/kg of Compound 1 of the invention (i.p. administration 30 minutes prior to test start).

What is called melting point is the temperature of the solid-liquid transition. In turn, `Cc1cc(O)cc(NC(=O)Nc2cccc(C(F)(F)F)c2)c1` yielded a melting point of 188 to 190 °C.

For `O=C(Nc1cc(Cl)c(O)c(Cl)c1)Nc1cc(C(F)(F)F)ccc1Cl`, the melting point is 213 to 221 °C. On the same count and under the same terms, under `O=C(Nc1ccc(-c2ccccc2)cc1)Nc1cc(Cl)ccc1O` stands 191 to 192 °C; under `Nc1cc(Cl)c(Cl)cc1NC(=O)Nc1cc(C(F)(F)F)ccc1Cl`, 207 to 209 °C. Regarding `CN1[C@@H]2C[C@@H](OC(=O)[C@H](CO)c3ccccc3)C[C@H]1[C@@H]1O[C@@H]12` [Scopolamine, reference compound], the “Effect on spatial reference memory as measured in MWM (latency to locate the platform)” value in the data set with male Wistar rats (s.c. administration 30 minutes prior to test start) is “significantly impairs”. In turn, `COc1ccc(Cl)cc1NC(=O)Nc1cc(C(F)(F)F)ccc1Cl` yielded a melting point of 172 to 176 °C. On to `Cc1cc(O)ccc1NC(=O)Nc1cccc(C(F)(F)F)c1`, for which the melting point was 185 to 186 °C. Still for that read-out and setting: the figure for `O=C(Nc1cccc(C(F)(F)F)c1)Nc1c(O)cccc1[N+](=O)[O-]` is 174 to 175 °C; for `COc1ccc(Cl)cc1NC(=O)Nc1ccc([N+](=O)[O-])cc1O` it is 225 to 226 °C; for `O=C(Nc1cccc(C(F)(F)F)c1)Nc1ccc(O)c(Cl)c1` it is 194 to 196 °C.

As for `Cc1cc(O)cc(NC(=O)Nc2cc(C(F)(F)F)ccc2Cl)c1`, the melting point was 190 to 192 °C. On the same count and under the same terms, under `O=C(Nc1cccc(-c2ccccc2)c1)Nc1cc(Cl)c(O)c(Cl)c1` stands 252 to 253 °C. Take `Cc1cc(O)ccc1NC(=O)Nc1cc(C(F)(F)F)ccc1Cl`: the melting point was 210 to 211 °C. The same measure, in the same setting: the figure for `O=C(Nc1ccc(-c2ccccc2)cc1)Nc1cc(Cl)c(O)c(Cl)c1` is 249 to 251 °C. Still for that read-out and setting: under `O=C(Nc1cccc(C(F)(F)F)c1)Nc1cc(Cl)c(O)c(Cl)c1` stands 215 to 218 °C. With `O=C(Nc1cc(Cl)ccc1O)Nc1cc(C(F)(F)F)ccc1Cl` [Compound 1, N-(3-Chloro-6-hydroxy-phenyl)-N′-(2-chloro-5-trifluoromethyl-phenyl)urea], in the data set on male Wistar rats (30 mg/kg i.p. 30 minutes prior to test start, with 0.1 mg/kg Scopolamine s.c., four trials per day, four days), the “Reversal of scopolamine-induced learning impairment (latency to locate the platform)” value was “reversed”.
